pEC50: −log10 of the molar value.
What was measured:
hCB1 = hCB1 (Homo sapiens, UniProt P21554); experiment: hCB1 radioligand binding assay ([3H]-CP 55,940 displacement); details: hCB1 IC50 (CP displ, nM, HEK), HEK membranes
Source text: (§1) cDNA expression clones for human CB 1 (hCB1, Genbank Accession No. AY225225) and human CB2 (hCB2, Genbank Accession No. AY242132) expressed in vector pcDNA3.1+ were purchased from UMR cDNA Resource Center, Rolla, Mo. (Clone ID CNR01L000 for hCB1; CNR0200000 for hCB2).
Stable, HEK-293-derived cell lines that recombinantly express hCB1 or hCB2 were established. In brief, the clone hCB1 (CNR1L) or hCB2 (CNR2) was transfected into human embryonic kidney cells (HEK-293) using Lipofectamine 2000 (Gibco, Cat#11668-019) according to the manufacturer's protocol. Transfected clones were isolated by single colony purification and clones were screened for receptor expression using a whole cell, ^3H—CP 55,940 radioligand binding assay. HEK-293 stable cells were maintained in Dulbecco's modified Eagles medium (DMEM) containing 10% fetal bovine serum, 2 mM L-glutamine and 0.5 mg/mL G-418.
(§2) Membranes were isolated from transfected cells as follows. Monolayers of cultured cells were washed twice with phosphate-buffered saline (PBS). Cells were scraped into 20 mM HEPES, pH 7.4, 10 mM EDTA containing complete cocktail protease inhibitors (Roche, Catalog #11 697 498 001), and were homogenized by an electric-powered mechanical probe homogenizer (Omni GLH; probe G7-195S) for 40 seconds at 7000 rpm. Homogenates were centrifuged 10 minutes at 1000×g at 4° C. The supernatant was collected and was centrifuged for 1 hour at 40,000×g. The supernatant was then decanted and the resulting pellet was re-suspended in 20 mM HEPES, pH 7.4, 5 mM MgCl2, 1 mM EDTA, 10% sucrose with complete cocktail protease inhibitors. Protein concentration of membrane suspensions were measured by Bradford Protein Assay using bovine serum albumin as the standard (BioRad catalog #500-0006). Protein concentrations of membrane suspensions were adjusted with the final buffer in the range of 5 to 10 mg/mL and were stored at −80° C. until further use.
Radioligand binding assays were performed by incubating membranes (2-10 μg protein) prepared from HEK-293 cells expressing recombinant human cannabinoid receptors, CB 1 or CB2, at room temperature with 0.5 nM cannabinoid receptor agonist, [^3H]-CP 55,940 (Perkin Elmer, catalog #NET 1051) in 0.2 mL of binding buffer (50 mM Tris-HCl, pH 7.5, 5 mM MgCl2, 2.5 mM EDTA) and 0.1% fatty acid free bovine serum albumin (Sigma Cat. #A0821) for 90 minutes. A rapid filtration technique using Millipore FB filter plates (Catalog #MADVNOB) and filtration apparatus (Millipore system Catalog MAVM0960R) with vacuum aspiration was used to harvest and rinse labeled membranes (8 times with 0.2 mL of chilled binding buffer). The radioactivity bound to the filters was counted with 0.05 mL of liquid scintillant (UltraGold MV, PerkinElmer catalog #6013159) in a scintillation counter (Perkin Elmer Microbeta instrument). Nonspecific binding was determined in the presence of unlabeled 1 μM CP 55,940 (Sigma Aldrich, catalog #C1112). Binding data were analyzed using GraphPad Prism (GraphPad Software, Inc. San Diego, Calif.).

hCB2 [1] = molecular target: T1, hCB2 (Homo sapiens, UniProt P34972); experiment: hCB2 GTPγS agonist assay (HEK-293 membranes); format: biochemical; details: for EC50: GTPγS agonist, HEK membranes, read-out: hCB2 EC50 (GTPyS ag, nM, HEK)
T1 sequence (P34972 whole entry): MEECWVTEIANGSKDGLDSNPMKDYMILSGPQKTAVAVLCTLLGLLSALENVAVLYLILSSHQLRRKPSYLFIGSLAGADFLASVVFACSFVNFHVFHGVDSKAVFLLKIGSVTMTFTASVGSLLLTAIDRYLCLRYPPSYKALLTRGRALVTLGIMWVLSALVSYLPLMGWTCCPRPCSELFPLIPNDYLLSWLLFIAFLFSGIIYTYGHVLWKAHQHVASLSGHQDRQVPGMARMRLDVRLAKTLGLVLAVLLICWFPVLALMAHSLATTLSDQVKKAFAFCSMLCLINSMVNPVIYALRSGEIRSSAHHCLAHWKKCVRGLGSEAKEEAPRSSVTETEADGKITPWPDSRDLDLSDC
Procedure: as §1
as §2, with “Cells were scraped into 20 mM HEPES, pH 7.4, 10 mM EDTA containing complete cocktail protease inhibitors (Roche, Catalog #11 697 498 001), and were homogenized by an electric-powered mechanical probe homogenizer (Omni GLH; probe G7-195S) for 40 seconds at 7000 rpm.” left out
^35S GTPγS binding assays were performed by incubating recombinant cell membranes prepared above (5 μg) in the presence of scintillation proximity assay beads (SPA beads, Catalog #RPNQ0252 GE Healthcare, Buckinghamshire, England) in GTPγS binding buffer [50 mM HEPES (pH 7.4), 100 mM NaCl, 5 mM MgCl2, 0.001% saponin (Sigma catalog #S4521)] supplemented with 20 uM GDP (Sigma catalog #G7127) in the presence or absence of test compound. The reaction was carried out in 96-well microplates with 0.1 nM [^35S]GTPγS (specific activity=1250 Ci/mmol; Perkin Elmer catalog #NEG030X250UC) in a final volume of 100 μL. After a 90 min room temperature incubation, the reaction was analyzed using a scintillation counter (Perkin Elmer Microbeta instrument). Binding data were analyzed using GraphPad Prism.

hCB2 [2] = molecular target: T1, hCB2; experiment: hCB2 radioligand binding assay ([3H]-CP 55,940 displacement); details: hCB2 IC50 (CP displ, nM, HEK), HEK membranes
Procedure: as §1
as §2, with “Cells were scraped into 20 mM HEPES, pH 7.4, 10 mM EDTA containing complete cocktail protease inhibitors (Roche, Catalog #11 697 498 001), and were homogenized by an electric-powered mechanical probe homogenizer (Omni GLH; probe G7-195S) for 40 seconds at 7000 rpm.” left out
A rapid filtration technique using Millipore FB filter plates (Catalog #MADVNOB) and filtration apparatus (Millipore system Catalog MAVM0960R) with vacuum aspiration was used to harvest and rinse labeled membranes (8 times with 0.2 mL of chilled binding buffer). […] Binding data were analyzed using GraphPad Prism (GraphPad Software, Inc. San Diego, Calif.).

hCB2 [3] = molecular target: T1, hCB2; experiment: hCB2 cAMP agonist assay (HEK-293 cells); format: cell-based; details: for EC50: cAMP agonist, HEK, 96-well, read-out: hCB2 EC50 (cAMP ag, nM, HEK (96-well))
Procedure: as §1
cAMP assays were performed in HEK-293 cells stably expressing human CB 1 or CB2 receptors. […] Cells suspensions were centrifuged and the cells were washed once with PBS, were centrifuged again, and the cells were resuspended in HBSS (Hank's Balanced Salt Solution, Cellgro, Cat #21-022-CV) solution containing 10 mM HEPES and 0.1% fatty acid free BSA (Sigma, Cat #A0281). Cell suspensions were prepared at 1,500,000 cells per mL. Stock solutions of test substances (10 mM) in DMSO were diluted to 1 mM using 30% DMSO as diluent. Test substances of solutions (1 mM) were further diluted down to 3× of final assay concentrations in the above HBSS buffer containing 0.1% BSA in the presence of 90 uM forskolin (Sigma Cat#F6886). To perform the assay, 20 μL of cell suspension (1,500,000 cells/mL) were added to each well in 96 well plate and treated with 10 μL test substance solution diluted as described above. Cells and compounds were incubated at 37° C. for 30 minutes. Cells were lysed and cAMP concentration was measured using DiscoveRx-XS+ cAMP assay kit (DiscoveRx Corporation Ltd., Fremont, Calif., USA, Cat #90-0075-03), following the manufacturer's protocol. GraphPad Prism software was used to calculate EC50 values using sigmoidal dose response curve fitting. The maximal amount of cAMP produced by forskolin was defined as 100%.

Sequence of hCB1 (P21554 whole entry): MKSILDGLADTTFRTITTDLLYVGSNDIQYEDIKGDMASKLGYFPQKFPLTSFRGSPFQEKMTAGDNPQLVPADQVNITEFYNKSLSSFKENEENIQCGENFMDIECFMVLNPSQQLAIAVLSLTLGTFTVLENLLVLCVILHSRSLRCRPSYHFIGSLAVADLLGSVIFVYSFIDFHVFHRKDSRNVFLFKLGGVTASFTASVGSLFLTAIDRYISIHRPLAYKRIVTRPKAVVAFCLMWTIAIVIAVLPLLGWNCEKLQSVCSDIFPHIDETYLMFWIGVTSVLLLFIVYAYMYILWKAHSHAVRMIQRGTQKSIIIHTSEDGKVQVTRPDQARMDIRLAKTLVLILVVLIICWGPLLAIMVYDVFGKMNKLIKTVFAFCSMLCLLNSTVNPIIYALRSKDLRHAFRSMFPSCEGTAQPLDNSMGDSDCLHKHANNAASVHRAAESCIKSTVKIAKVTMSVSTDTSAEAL

Row | Structure (SMILES) | IC50 (hCB1) | EC50 (hCB2 [1]) | IC50 (hCB2 [2]) | pEC50 (hCB2 [1]) | pEC50 (hCB2 [3]) | EC50 (hCB2 [3])
1 | CCCn1c(C(=O)c2c[nH]c3ncccc23)cc2ccsc21 [Compound I-43] | > 10000 nM | 100 to 1000 nM | 1000 to 10000 nM |  |  | 
2 | CCCn1c(C)c(C(=O)c2cc3ccsc3s2)c2ccccc21 [Compound I-46] | 1000 to 10000 nM |  | 100 to 1000 nM | 6.00 to 7.00 | 6.00 to 7.00 | 
3 | CCCn1c(C)c(C(=O)c2cc3cc(Cl)sc3[nH]2)c2ccccc21 [Compound I-48] | 1000 to 10000 nM |  | 100 to 1000 nM | 6.00 to 7.00 | 6.00 to 7.00 | 
4 | CCCn1c(C(=O)c2c(C)n(CC)c3ccccc23)cc2ccsc21 [Compound I-50] | 1000 to 10000 nM |  | < 100 nM | > 7.00 | > 7.00 | 
5 | CCCn1c(C)c(C(=O)c2cc3ccsc3n2CCC)c2cc(Cl)ccc21 [Compound I-52] | 1000 to 10000 nM |  | 100 to 1000 nM | 6.00 to 7.00 | 6.00 to 7.00 | 
6 | CCCn1c(C)c(C(=O)c2cc3ccsc3n2CC)c2ccccc21 [Compound I-54] | 1000 to 10000 nM |  | < 100 nM | > 7.00 | > 7.00 | 
7 | CCCn1c(C)c(C(=O)c2cc3ccsc3n2C)c2ccccc21 [Compound I-55] | > 10000 nM |  | 100 to 1000 nM | 6.00 to 7.00 | > 7.00 | 
8 | CCCn1c(C)c(C(=O)c2cc3cc(C)n(CCC)c3s2)c2ccccc21 [Compound I-56] | 1000 to 10000 nM |  | < 100 nM | > 7.00 | > 7.00 | 
9 | CCCn1c(C(=O)c2c(C)n(CCN3CCCCC3)c3ccccc23)cc2ccsc21 [Compound I-59] | 100 to 1000 nM |  | < 100 nM | 6.00 to 7.00 | > 7.00 | 
10 | CCCn1c(C)c(C(=O)c2cc3ccsc3n2CCC)c2cc(OC)ccc21 [Compound I-61] | 100 to 1000 nM |  | < 100 nM |  | 6.00 to 7.00 | 
11 | CCCn1c(C)c(C(=O)c2cc3cc(C)n(CCC)c3s2)c2ccccc21 [Compound I-63] |  |  | 100 to 1000 nM |  |  | 
12 | CCCn1c(C(=O)c2c[nH]c3ccccc23)cc2ccsc21 [Compound I-64] | > 10000 nM | 100 to 1000 nM | 100 to 1000 nM |  |  | 100 to 1000 nM
13 | CCCn1c(C)c(C(=O)c2cc3ccsc3n2CC)c2c1CCC(C)(C)C2 [Compound I-65] | 1000 to 10000 nM | < 100 nM | < 100 nM |  |  | < 100 nM
14 | CCCn1c(C)c(C(=O)c2cc3occc3[nH]2)c2ccccc21 [Compound I-71] | > 10000 nM |  | 1000 to 10000 nM |  |  | 
15 | CCCn1c(C)c(C(=O)c2cc3cc(C)[nH]c3s2)c2ccccc21 [Compound I-75] | > 10000 nM |  | 1000 to 10000 nM |  |  | 
